Like-named read-outs stand apart in the source and are kept apart here.
Experiments:
Assay in all cases: MIC against extended fungal panel
[1] = test system: Candida tropicalis ATCC 750; type: cell-based
Protocol: (§1) The extended panel contained four Candida and two Cryptococcus strains (Table 1).
(§2) Antifungal data collection: Fungi strains were cultured for 3 days on yeast extract‐peptone dextrose (YPD) agar at 30 °C. A yeast suspension of 1×10^6 to 5×10^6 CFU mL^−1 (as determined by OD530) was prepared from five colonies. The suspension was diluted in supplemented YNB and added to each well of the compound‐containing plates giving a final cell density of fungi suspension of 2.5×10^3 CFU mL^−1 and 2 % DMSO. All plates were covered and incubated at 35 °C for 36 h without shaking.
(§3) Two biological replicates x2 technical replicates were conducted on separate days (final n=4).
(§4) Growth inhibition of C. albicans, C. tropicalis and C. glabrata was determined by measuring absorbance at 630 nm (OD630), while the growth inhibition of Cryptococcus spp. and C. auris was determined by measuring the difference in absorbance between 600 and 570 nm (OD600‐570), after the addition of resazurin (0.01 % final concentration) and incubation at 35 °C for 2 h. The absorbance was measured using a Biotek Multiflo Synergy HTX plate reader.
(§5) The percentage of growth inhibition was calculated for each well, using the negative control (media only) and positive control (fungi without inhibitors) on the same plate. […] In addition, the maximal percentage of growth inhibition is reported as D Max, indicating any compounds with marginal activity.

[2] = test system: C. neoformans ATCC 208821; type: cell-based, Cryptococcus neoformans
Protocol: as §1, §2, §3, §4, §5

C. auris CBS10913 = type: cell-based, Candida auris
Protocol: as §1, §2, §3, §4, §5

C. glabrata ATCC 90030 = type: cell-based, Candida glabrata
Protocol: as §1, §2, §3, §4, §5

[3] = test system: C. deuterogattii ATCC 32609; type: cell-based, Cryptococcus deuterogattii
Protocol: as §1, §2, §3, §4, §5

C. albicans ATCC 90028 = type: cell-based, Candida albicans; details: for MIC: Candida albicans, ATCC90028
Protocol: as §1, §2, §3, §4, §5

- MIC ([1]; Candida tropicalis, ATCC750, Table S3, Table 1 values in µM): 13.1 µM
- MIC ([1]; Candida tropicalis, ATCC750, range of MICs, n=4): 4 µg/mL
- MIC ([1]; second Table S4, free ligands): 13.1 µM
- MIC ([2]; Cryptococcus neoformans, ATCC208821, Table S3, Table 1 values in µM, read-out: MIC, Cryptococcus neoformans ATCC 208821): 26.1 µM
- MIC ([2]; Cryptococcus neoformans, ATCC208821, range of MICs, n=4, read-out: MIC, C. neoformans ATCC 208821): 8 µg/mL
- MIC ([2]; second Table S4, free ligands, read-out: MIC, Cryptococcus neoformans ATCC 208821): 26.1 µM
- MIC (C. auris CBS10913; Candidozyma auris, CBS10913, Table S3, Table 1 values in µM, read-out: MIC, Candida auris CBS10913): > 104 µM
- MIC (C. auris CBS10913; Candidozyma auris, CBS10913, range of MICs, n=4, read-out: MIC, C. auris CBS10913): ≥ 32 µg/mL
- MIC (C. auris CBS10913; second Table S4, free ligands, read-out: MIC, Candida auris CBS10913): > 104 µM
- MIC (C. glabrata ATCC 90030; Nakaseomyces glabratus, ATCC90030, Table S3, Table 1 values in µM, read-out: MIC, Candida glabrata ATCC 90030): > 104 µM
- MIC (C. glabrata ATCC 90030; Nakaseomyces glabratus, ATCC90030, range of MICs, n=4, read-out: MIC, C. glabrata ATCC 90030): > 32 µg/mL
- MIC (C. glabrata ATCC 90030; second Table S4, free ligands, read-out: MIC, Candida glabrata ATCC 90030): > 104 µM
- MIC ([3]; Cryptococcus deuterogattii, ATCC32609, Table S3, Table 1 values in µM, read-out: MIC, Cryptococcus deuterogattii ATCC 32609): > 104 µM
- MIC ([3]; Cryptococcus deuterogattii, ATCC32609, range of MICs, n=4, read-out: MIC, C. deuterogattii ATCC 32609): > 32 µg/mL
- MIC ([3]; second Table S4, free ligands, read-out: MIC, Cryptococcus deuterogattii ATCC 32609): > 104 µM
- MIC (C. albicans ATCC 90028; Table S3, Table 1 values in µM, read-out: MIC, Candida albicans ATCC 90028): 0.816 to 1.63 µM
- MIC (C. albicans ATCC 90028; range of MICs, n=4, read-out: MIC, C. albicans ATCC 90028): 0.25 to 0.5 µg/mL
- MIC, Candida albicans ATCC 90028 (C. albicans ATCC 90028; second Table S4, free ligands): 0.816 to 1.63 µM
Compound: OC(Cn1cncn1)(Cn1cncn1)c1ccc(F)cc1F [fluconazole]

— publication PMC10947176, “The Antimicrobial Properties of Pd^II− and Ru^II−pyta Complexes” (Chembiochem, 2023)
